# Test results taken from ChEMBL document CHEMBL1138864, “Synthesis of novel caspase inhibitors for characterization of the active caspase proteome in vitro and in vivo” (J Med Chem, 2006).
# Activity calls are given as the source filed them. The rule behind the calls is not given here.
# Experiments:
# Jurkat [1] = test: Inhibition of etoposide-induced apoptosis in human Jurkat T cells at 1 uM; type: functional, cell-based
# Jurkat [2] = test: Inhibition of etoposide-induced apoptosis in human Jurkat T cells at 10 uM; type: functional, cell-based
compound,measurement,setting,value
Cc1cccc(C)c1C(=O)OCC(=O)[C@H](CC(=O)O)NC(=O)[C@H](CCCCNc1ccc([N+](=O)[O-])cc1[N+](=O)[O-])NC(=O)[C@H](CCC(=O)O)NC(=O)OCc1ccccc1,Activity,Jurkat [1],Active
same,Activity,Jurkat [2],Active
